The values that follow come from ChEMBL document CHEMBL4152349, “A Fragment-Derived Clinical Candidate for Antagonism of X-Linked and Cellular Inhibitor of Apoptosis Proteins: 1-(6-[(4-Fluorophenyl)methyl]-5-(hydroxymethyl)-3,3-dimethyl-1 H,2 H,3 H-pyrrolo[3,2- b]pyridin-1-yl)-2-[(2 R,5 …” (J Med Chem, 2018).

Some results are limits rather than exact numbers.

Series [1] addresses hERG (KCNH2) (Homo sapiens, UniProt Q12809). Kind of series: in vitro. Particulars: CHO-K1 cells expressing human ERG.
Series [2] in a line: Oral bioavailability in Balb/c mouse at 10 mg/kg by UHPLC and ESI mass spectrometry. It is filed as ADME, organism-based. The note with it: in vivo.
Series [3] can be described thus: Oral bioavailability in Balb/c mouse at 5 mg/kg by UHPLC and ESI mass spectrometry. It counts as ADME, organism-based. The note with it: in vivo.
The nature of series [4]: Chromatographic hydrophobicity index, log D of the compound at pH 7.4 by HPLC method. It counts as physicochemical. Particulars: buffer.
Series [5] in a line: in vivo. The note with it: cynomolgus monkey, po, 5 mg/kg.
For series [6], the system named is MDA-MB-231. Nature of the series: cells. Particulars: Homo sapiens, MDA-MB-231, 72 h.
Series [7] concerns the target CYP3A4 (Homo sapiens, UniProt P08684). Kind of series: in vitro. Particulars: human CYP3A4 supersomes.

Chain of CYP3A4 (P08684 whole entry): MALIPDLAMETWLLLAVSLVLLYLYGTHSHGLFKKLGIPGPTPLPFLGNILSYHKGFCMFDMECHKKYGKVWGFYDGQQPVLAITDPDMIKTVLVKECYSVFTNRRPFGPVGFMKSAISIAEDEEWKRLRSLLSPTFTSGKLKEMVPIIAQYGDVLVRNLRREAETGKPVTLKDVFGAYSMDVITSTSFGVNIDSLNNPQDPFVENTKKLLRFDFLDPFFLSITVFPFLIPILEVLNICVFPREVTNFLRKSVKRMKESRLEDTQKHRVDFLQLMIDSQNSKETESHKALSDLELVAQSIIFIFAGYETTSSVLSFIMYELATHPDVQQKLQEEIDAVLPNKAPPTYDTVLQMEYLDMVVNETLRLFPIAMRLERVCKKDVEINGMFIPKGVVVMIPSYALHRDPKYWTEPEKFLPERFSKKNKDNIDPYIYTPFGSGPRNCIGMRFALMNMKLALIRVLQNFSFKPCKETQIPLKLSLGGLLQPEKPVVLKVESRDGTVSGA
Chain of hERG (KCNH2) (Q12809 whole entry): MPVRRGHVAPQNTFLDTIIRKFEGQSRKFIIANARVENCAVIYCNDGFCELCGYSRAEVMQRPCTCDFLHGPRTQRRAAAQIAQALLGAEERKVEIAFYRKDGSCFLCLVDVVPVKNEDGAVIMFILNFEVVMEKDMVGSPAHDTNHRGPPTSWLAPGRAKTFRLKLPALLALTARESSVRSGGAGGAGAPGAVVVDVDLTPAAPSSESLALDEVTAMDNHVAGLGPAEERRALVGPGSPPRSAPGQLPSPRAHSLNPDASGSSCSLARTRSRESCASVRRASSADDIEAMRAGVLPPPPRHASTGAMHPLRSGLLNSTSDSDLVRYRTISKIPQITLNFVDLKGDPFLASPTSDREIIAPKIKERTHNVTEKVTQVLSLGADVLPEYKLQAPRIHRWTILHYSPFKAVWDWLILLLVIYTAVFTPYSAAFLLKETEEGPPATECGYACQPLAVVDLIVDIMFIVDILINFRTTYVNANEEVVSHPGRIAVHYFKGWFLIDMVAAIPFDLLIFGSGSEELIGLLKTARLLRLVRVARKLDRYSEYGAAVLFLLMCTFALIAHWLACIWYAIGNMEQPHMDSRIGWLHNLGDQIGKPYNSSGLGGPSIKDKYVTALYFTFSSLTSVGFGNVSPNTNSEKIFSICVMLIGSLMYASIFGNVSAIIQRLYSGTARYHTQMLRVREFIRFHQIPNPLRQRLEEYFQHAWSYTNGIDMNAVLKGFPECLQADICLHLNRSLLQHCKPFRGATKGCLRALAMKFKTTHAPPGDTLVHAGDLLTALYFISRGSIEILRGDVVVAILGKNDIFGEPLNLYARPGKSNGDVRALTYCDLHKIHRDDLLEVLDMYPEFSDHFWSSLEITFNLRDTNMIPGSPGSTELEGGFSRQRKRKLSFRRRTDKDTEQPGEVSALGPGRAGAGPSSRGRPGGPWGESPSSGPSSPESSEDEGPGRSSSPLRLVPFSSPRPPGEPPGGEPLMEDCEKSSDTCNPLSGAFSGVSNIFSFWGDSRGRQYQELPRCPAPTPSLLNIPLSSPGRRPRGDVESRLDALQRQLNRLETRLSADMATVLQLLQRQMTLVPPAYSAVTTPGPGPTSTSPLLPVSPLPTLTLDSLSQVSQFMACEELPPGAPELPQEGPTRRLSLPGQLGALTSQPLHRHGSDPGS

For orientation: inhibition means the drop in the measured response relative to a control, in per cent. A higher inhibition goes with strong suppression. As usually defined, the bioavailability is dose-corrected exposure relative to a reference, in per cent. In general, chromatographic logD refers to a lipophilicity value derived from retention on a column. Low values mean lower lipophilicity, high ones higher lipophilicity. A word on the IC50: it is the point on the concentration scale where inhibition reaches its midpoint. Lower therefore signals greater potency in that assay. For orientation: half-life means how long it takes for the measured level to halve. `C[C@@H]1CN(CC(=O)N2CC(C)(C)c3nnc(Cc4ccc(F)cc4F)cc32)[C@@H](CN2Cc3ccccc3C2=O)CN1` gave an inhibition at 10 min, 30 µM in series [1] of 27%. In addition, the bioavailability in series [2] came to 2%; in series [3], 3%; in series [5] it was 18%. For the same compound, the chromatographic logD in series [4] came out at 2.4. In series [6], this compound returned an IC50 of 5.4 nM. The same compound gave a half-life at 40 min, 1 µM in series [7] above 1.17 h.
